Measurements as given in PMC10008000 (Iranian Journal of Pharmaceutical Research : IJPR, 2023).

Legend:
[1] = MTT assay, normal fibroblast cell line HDF; format: cell-based; conditions: human, HDF normal fibroblast cells
[2] = test system: HT-29 colon cancer cells; assay: MTT antitumor assay, HT-29; format: cell-based; conditions: Homo sapiens, HT-29, 48 h, read-out: IC50 (μM) ± SD HT-29
[3] = test system: MCF-7 breast cancer cells; assay: MTT antitumor assay, MCF-7; format: cell-based; conditions: Homo sapiens, MCF7, 48 h, read-out: IC50 (μM) ± SD MCF-7
[4] = test system: A-549 lung cancer cells; assay: MTT antitumor assay, A-549; format: cell-based; conditions: Homo sapiens, A549, 48 h, read-out: IC50 (μM) ± SD A-549
[5] = biological target: EGFR tyrosine kinase (Homo sapiens, UniProt P00533); assay: EGFR Kinase Assay Kit / Kinase-Glo luminescence kinase assay; format: biochemical
Chain of EGFR tyrosine kinase (P00533 25-1210): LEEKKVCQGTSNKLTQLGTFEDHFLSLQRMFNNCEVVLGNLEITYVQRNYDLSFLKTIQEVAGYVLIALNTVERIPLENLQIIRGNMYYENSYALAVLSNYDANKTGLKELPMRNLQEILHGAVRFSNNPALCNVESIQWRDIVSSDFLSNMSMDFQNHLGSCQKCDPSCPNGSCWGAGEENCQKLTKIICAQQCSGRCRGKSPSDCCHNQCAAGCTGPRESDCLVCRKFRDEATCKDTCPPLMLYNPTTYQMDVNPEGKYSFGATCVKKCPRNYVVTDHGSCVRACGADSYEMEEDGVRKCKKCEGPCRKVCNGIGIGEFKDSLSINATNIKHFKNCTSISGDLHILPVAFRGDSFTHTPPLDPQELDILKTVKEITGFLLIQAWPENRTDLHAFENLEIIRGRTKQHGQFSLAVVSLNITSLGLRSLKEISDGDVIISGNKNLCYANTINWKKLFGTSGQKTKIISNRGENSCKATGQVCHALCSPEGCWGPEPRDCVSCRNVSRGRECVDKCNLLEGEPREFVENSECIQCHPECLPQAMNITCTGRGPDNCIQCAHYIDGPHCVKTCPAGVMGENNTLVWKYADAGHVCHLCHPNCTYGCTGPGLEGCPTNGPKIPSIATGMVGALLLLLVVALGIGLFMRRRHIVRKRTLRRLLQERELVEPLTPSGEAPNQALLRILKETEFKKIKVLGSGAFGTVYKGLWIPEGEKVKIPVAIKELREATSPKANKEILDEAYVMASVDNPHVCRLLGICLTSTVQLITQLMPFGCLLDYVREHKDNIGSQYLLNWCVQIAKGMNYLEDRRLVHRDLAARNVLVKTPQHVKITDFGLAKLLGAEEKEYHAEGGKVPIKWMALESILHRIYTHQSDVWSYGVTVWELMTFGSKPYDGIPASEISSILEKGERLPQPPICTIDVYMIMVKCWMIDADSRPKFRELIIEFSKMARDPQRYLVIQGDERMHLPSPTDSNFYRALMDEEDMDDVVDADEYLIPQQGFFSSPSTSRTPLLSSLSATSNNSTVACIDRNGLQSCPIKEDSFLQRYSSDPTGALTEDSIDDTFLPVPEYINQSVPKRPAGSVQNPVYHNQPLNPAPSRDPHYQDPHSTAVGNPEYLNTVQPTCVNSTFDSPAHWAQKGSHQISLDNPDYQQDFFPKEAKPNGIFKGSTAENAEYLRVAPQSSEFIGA

SMILES	IC50 at 48 h [1]	IC50 [2]	IC50 [3]	IC50 [4]	IC50 [5]
COc1ccc(Nc2nc(N)nc3ccc(NCc4ccccc4)cc23)cc1 [10h, N^6-benzyl-N^4-(4-methoxyphenyl) quinazoline-2,4,6-triamine]	≥ 100 µM	≥ 100 µM	≥ 100 µM	≥ 100 µM	
Nc1nc(Nc2ccccc2)c2cc(NCc3ccccc3)ccc2n1 [10a, N^6-benzyl-N^4-phenylquinazoline-2,4,6-triamine]	≥ 100 µM	≥ 100 µM	≥ 100 µM	≥ 100 µM	
Nc1nc(Nc2ccccc2)c2cc(NC(=O)c3ccc(F)cc3)ccc2n1 [10p, N-(2-amino-4-(phenylamino)quinazolin-6-yl)-4-fluorobenzamide]	≥ 100 µM	≥ 100 µM	≥ 100 µM	≥ 100 µM	
Cc1ccc(Nc2nc(N)nc3ccc(NCc4ccccc4)cc23)cc1 [10g, N^6-benzyl-N^4-p-methylphenyl quinazoline-2,4,6-triamine]	≥ 100 µM	≥ 100 µM	≥ 100 µM	≥ 100 µM	
Cc1ccc(CNc2ccc3nc(N)nc(Nc4ccccc4)c3c2)cc1 [10d, N^6-(4-methylbenzyl)-N^4-phenylquinazoline-2,4,6-triamine]	≥ 100 µM	≥ 100 µM	≥ 100 µM	0.126 ± 0.019 µM	45.5 µM
Nc1nc(Nc2ccc(F)cc2)c2cc(NCc3ccccc3)ccc2n1 [10l, N^6-benzyl-N^4-(4-fluorophenyl) quinazoline-2,4,6-triamine]	≥ 100 µM	≥ 100 µM	≥ 100 µM	≥ 100 µM	
COc1cccc2c1C(=O)c1c(O)c3c(c(O)c1C2=O)C[C@@](O)(C(=O)CO)C[C@@H]3O[C@H]1C[C@H](N)[C@H](O)[C@H](C)O1 [Doxorubicin, reference compound]	≥ 100 µM	56.3 ± 0.9 µM	4.07 ± 0.38 µM	4.3 ± 0.3 µM	

The next lines start with the values.

IC50 at 48 h [1]	IC50 [2]	IC50 [3]	IC50 [4]	IC50 [5]	SMILES
≥ 100 µM	≥ 100 µM	≥ 100 µM	≥ 100 µM		Cc1ccc(C(=O)Nc2ccc3nc(N)nc(Nc4ccccc4)c3c2)cc1 [10n, N-(2-amino-4-(phenylamino)quinazolin-6-yl)-4-methylbenzamide]
≥ 100 µM	13.5 ± 1.89 µM	63.5 ± 1.39 µM	15 ± 0.9 µM	3.53 µM	COc1ccc(CNc2ccc3nc(N)nc(Nc4ccccc4)c3c2)cc1 [10e, N^6-(4-methoxybenzyl)-N^4-phenylquinazoline-2,4,6-triamine]
≥ 100 µM	28.1 ± 0.69 µM	18.2 ± 2.6 µM	73.3 ± 1.5 µM		C#Cc1cccc(Nc2ncnc3cc(OCCOC)c(OCCOC)cc23)c1 [Erlotinib, reference compound]
